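Here, GI50 denotes the concentration required for 50% inhibition of growth. The concentration for full growth arrest is given as TGI.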
Assays:
Test in all cases: inhibition of tumour cell growth, NCI panel, 384-well format
786-0 renal = test system: 786-0 renal
A498 renal = test system: A498 renal
A549 NSCLC = test system: A549 NSCLC
ACHN renal = test system: ACHN renal
BT-549 breast = test system: BT-549 breast
CAKI-1 renal = test system: CAKI-1 renal
CCRF-CEM leukemia = test system: CCRF-CEM leukemia
DU-145 prostate = test system: DU-145 prostate
EKVX NSCLC = test system: EKVX NSCLC
HCT-116 colon = test system: HCT-116 colon
HCT-15 colon = test system: HCT-15 colon
HL-60(TB) leukemia = test system: HL-60(TB) leukemia
HOP-62 NSCLC = test system: HOP-62 NSCLC
HOP-92 NSCLC = test system: HOP-92 NSCLC
HS 578T breast = test system: HS 578T breast
HT29 colon = test system: HT29 colon
IGROV1 ovarian = test system: IGROV1 ovarian
K-562 leukemia = test system: K-562 leukemia
KM12 colon = test system: KM12 colon
LOX IMVI melanoma = test system: LOX IMVI melanoma
M14 melanoma = test system: M14 melanoma
MALME-3M melanoma = test system: MALME-3M melanoma
MCF7 breast = test system: MCF7 breast
MDA-MB-231 breast = test system: MDA-MB-231 breast
MDA-MB-435 melanoma = test system: MDA-MB-435 melanoma
MDA-MB-468 breast = test system: MDA-MB-468 breast
MOLT-4 leukemia = test system: MOLT-4 leukemia
NCI-H226 lung = test system: NCI-H226 lung
NCI-H23 lung = test system: NCI-H23 lung
NCI-H322M lung = test system: NCI-H322M lung
NCI-H522 lung = test system: NCI-H522 lung
NCI/ADR-RES ovarian = test system: NCI/ADR-RES ovarian
OVCAR-3 ovarian = test system: OVCAR-3 ovarian
OVCAR-4 ovarian = test system: OVCAR-4 ovarian
OVCAR-5 ovarian = test system: OVCAR-5 ovarian
OVCAR-8 ovarian = test system: OVCAR-8 ovarian
PC-3 prostate = test system: PC-3 prostate
RPMI-8226 leukemia = test system: RPMI-8226 leukemia
RXF 393 renal = test system: RXF 393 renal
SF-268 CNS = test system: SF-268 CNS
SF-295 CNS = test system: SF-295 CNS
SF-539 CNS = test system: SF-539 CNS
SK-MEL-2 melanoma = test system: SK-MEL-2 melanoma
SK-MEL-28 melanoma = test system: SK-MEL-28 melanoma
SK-OV-3 ovarian = test system: SK-OV-3 ovarian
SN12C renal = test system: SN12C renal
SNB-19 CNS = test system: SNB-19 CNS
SNB-75 CNS = test system: SNB-75 CNS
SW-620 colon = test system: SW-620 colon
T-47D breast = test system: T-47D breast
TK-10 renal = test system: TK-10 renal
U251 glioblastoma = test system: U251 glioblastoma
UACC-257 melanoma = test system: UACC-257 melanoma
UACC-62 melanoma = test system: UACC-62 melanoma
UO-31 renal = test system: UO-31 renal

N[C@@H]1CCCC[C@H]1N.O=C([O-])C(=O)[O-].[Pt+4]
GI50 ([…]-0 renal): 3.2 µM
TGI (786-0 renal): 98.7 µM
GI50 (A498 renal): 0.939 µM
TGI (A498 renal): 54.1 µM
GI50 (A549 NSCLC): 2.61 µM
TGI (A549 NSCLC): > 100 µM
GI50 (ACHN renal): 2.88 µM
TGI (ACHN renal): 20.4 µM
GI50 (BT-549 breast): 12.1 µM
TGI (BT-549 breast): 27.8 µM
GI50 (CAKI-1 renal): 1.03 µM
TGI (CAKI-1 renal): 31.3 µM
GI50 (CCRF-CEM leukemia): 2.13 µM
TGI (CCRF-CEM leukemia): 4.74 µM
GI50 (DU-145 prostate): 7.47 µM
TGI (DU-145 prostate): 36 µM
GI50 (EKVX NSCLC): > 100 µM
TGI (EKVX NSCLC): > 100 µM
GI50 (HCT-116 colon): 3.36 µM
TGI (HCT-116 colon): > 100 µM
GI50 (HCT-15 colon): 4.11 µM
TGI (HCT-15 colon): 40.8 µM
GI50 (HL-60(TB) leukemia): 0.523 µM
TGI (HL-60(TB) leukemia): 1.82 µM
GI50 (HOP-62 NSCLC): 7.92 µM
TGI (HOP-62 NSCLC): > 100 µM
GI50 (HOP-92 NSCLC): 32.3 µM
TGI (HOP-92 NSCLC): > 100 µM
GI50 (HS 578T breast): > 100 µM
TGI (HS 578T breast): > 100 µM
GI50 (HT29 colon): 3.78 µM
TGI (HT29 colon): > 100 µM
GI50 (IGROV1 ovarian): 16.7 µM
TGI (IGROV1 ovarian): > 100 µM
GI50 (K-562 leukemia): 4.56 µM
TGI (K-562 leukemia): 21.5 µM
GI50 (KM12 colon): 20.8 µM
TGI (KM12 colon): > 100 µM
GI50 (LOX IMVI melanoma): 12.2 µM
TGI (LOX IMVI melanoma): > 100 µM
GI50 (M14 melanoma): 8.78 µM
TGI (M14 melanoma): 52.6 µM
GI50 (MALME-3M melanoma): 10.7 µM
TGI (MALME-3M melanoma): 22.8 µM
GI50 (MCF7 breast): 5.43 µM
TGI (MCF7 breast): > 100 µM
GI50 (MDA-MB-231 breast): 25.8 µM
TGI (MDA-MB-231 breast): > 100 µM
GI50 (MDA-MB-435 melanoma): 9.49 µM
TGI (MDA-MB-435 melanoma): > 100 µM
GI50 (MDA-MB-468 breast): 2.33 µM
TGI (MDA-MB-468 breast): 7.94 µM
GI50 (MOLT-4 leukemia): 0.276 µM
TGI (MOLT-4 leukemia): 0.7 µM
GI50 (NCI-H226 lung): 12.5 µM
TGI (NCI-H226 lung): 48.4 µM
GI50 (NCI-H23 lung): 8.68 µM
TGI (NCI-H23 lung): 28.8 µM
GI50 (NCI-H322M lung): > 100 µM
TGI (NCI-H322M lung): > 100 µM
GI50 (NCI-H522 lung): 10.1 µM
TGI (NCI-H522 lung): 21.7 µM
GI50 (NCI/ADR-RES ovarian): 20.2 µM
TGI (NCI/ADR-RES ovarian): > 100 µM
GI50 (OVCAR-3 ovarian): 8.13 µM
TGI (OVCAR-3 ovarian): 30.6 µM
GI50 (OVCAR-4 ovarian): 19.8 µM
TGI (OVCAR-4 ovarian): > 100 µM
GI50 (OVCAR-5 ovarian): 8.06 µM
TGI (OVCAR-5 ovarian): 47.8 µM
GI50 (OVCAR-8 ovarian): 6.15 µM
TGI (OVCAR-8 ovarian): > 100 µM
GI50 (PC-3 prostate): 8.53 µM
TGI (PC-3 prostate): > 100 µM
GI50 (RPMI-8226 leukemia): 0.403 µM
TGI (RPMI-8226 leukemia): 1.85 µM
GI50 (RXF 393 renal): 10.6 µM
TGI (RXF 393 renal): 23.7 µM
GI50 (SF-268 CNS): 11 µM
TGI (SF-268 CNS): > 100 µM
GI50 (SF-295 CNS): 27.4 µM
TGI (SF-295 CNS): > 100 µM
GI50 (SF-539 CNS): 6.07 µM
TGI (SF-539 CNS): 35.5 µM
GI50 (SK-MEL-2 melanoma): 75.9 µM
TGI (SK-MEL-2 melanoma): > 100 µM
GI50 (SK-MEL-28 melanoma): 14.6 µM
TGI (SK-MEL-28 melanoma): 63.9 µM
GI50 (SK-OV-3 ovarian): 31 µM
TGI (SK-OV-3 ovarian): > 100 µM
GI50 (SN12C renal): 7.27 µM
TGI (SN12C renal): > 100 µM
GI50 (SNB-19 CNS): 58.3 µM
TGI (SNB-19 CNS): > 100 µM
GI50 (SNB-75 CNS): 30 µM
TGI (SNB-75 CNS): > 100 µM
GI50 (SW-620 colon): 0.951 µM
TGI (SW-620 colon): 55.8 µM
GI50 (T-47D breast): 12.7 µM
TGI (T-47D breast): > 100 µM
GI50 (TK-10 renal): 11.2 µM
TGI (TK-10 renal): > 100 µM
GI50 (U251 glioblastoma): 8.83 µM
TGI (U251 glioblastoma): > 100 µM
GI50 (UACC-257 melanoma): 24.1 µM
TGI (UACC-257 melanoma): > 100 µM
GI50 (UACC-62 melanoma): 3.15 µM
TGI (UACC-62 melanoma): 25.1 µM
GI50 (UO-31 renal): 10.4 µM
TGI (UO-31 renal): 25.5 µM

From PubChem BioAssay (NCI)
